Our source for the T/C values is PubChem BioAssay AID248 (DTP/NCI, 2004).

SMILES strings stand for the structures. “And” between values parts separate entries of the source, which are not always exact repeats. Equal values may be shown once. Inconclusive results and toxic doses are left out.

This assay concerns L1210 leukemia ip in BDF1 mice, survival T/C. Briefly: NCI In Vivo Anticancer Drug Screen. Data for tumor model L1210 Leukemia (intraperitoneal) in B6D2F1 (BDF1) mice. As to conditions: endpoint: mean survival time, higher = longer survival. In a few lines:
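Transplantable tumor model; survival measured in treated vs vehicle control mice. Value = treated/control.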

Where [1] appears, read: dose: 100.0 mg/kg/injection, schedule: Q04DX003 (ip), vehicle: saline.
[2] abbreviates: dose: 200.0 mg/kg/injection, schedule: Q04DX003 (ip), vehicle: saline.
[3] abbreviates: dose: 400.0 mg/kg/injection, schedule: Q04DX003 (ip), vehicle: saline.
Setting [4] is: dose: 100.0 mg/kg/injection, schedule: Q01DX001 (ip), vehicle: saline.
Setting [5] is: dose: 200.0 mg/kg/injection, schedule: Q01DX001 (ip), vehicle: saline.
Where [6] appears, read: dose: 400.0 mg/kg/injection, schedule: Q01DX001 (ip), vehicle: saline.
Setting [7] is: dose: 100.0 mg/kg/injection, schedule: Q01DX009 (ip), vehicle: Klucel (hydroxypropylcellulose) (HPC).
Where [8] appears, read: dose: 100.0 mg/kg/injection, schedule: Q04DX003 (ip), vehicle: Klucel (hydroxypropylcellulose) (HPC).
The mark [9] stands for this setting: dose: 200.0 mg/kg/injection, schedule: Q01DX009 (ip), vehicle: Klucel (hydroxypropylcellulose) (HPC).
[10] abbreviates: dose: 200.0 mg/kg/injection, schedule: Q04DX003 (ip), vehicle: Klucel (hydroxypropylcellulose) (HPC).
Setting [11] is: dose: 100.0 mg/kg/injection, schedule: Q01DX009 (ip), vehicle: saline with Tween-80.
[12] abbreviates: dose: 100.0 mg/kg/injection, schedule: Q04DX003 (ip), vehicle: saline with Tween-80.
Setting [13] is: dose: 200.0 mg/kg/injection, schedule: Q01DX009 (ip), vehicle: saline with Tween-80.
Where [14] appears, read: dose: 200.0 mg/kg/injection, schedule: Q04DX003 (ip), vehicle: saline with Tween-80.
The mark [15] stands for this setting: dose: 400.0 mg/kg/injection, schedule: Q04DX003 (ip), vehicle: saline with Tween-80.
Where [16] appears, read: dose: 100.0 mg/kg/injection, schedule: Q04DX002 (ip), vehicle: Klucel (hydroxypropylcellulose) (HPC).
Setting [17] is: dose: 200.0 mg/kg/injection, schedule: Q04DX002 (ip), vehicle: Klucel (hydroxypropylcellulose) (HPC).
The mark [18] stands for this setting: dose: 400.0 mg/kg/injection, schedule: Q04DX002 (ip), vehicle: Klucel (hydroxypropylcellulose) (HPC).

Turning to `C(CC1CO1)CC1OC1CC1CO1` (stereo unspecified), the T/C is 102 % of control (dose: 15.0 mg/kg/injection, schedule: Q01DX009 (ip), vehicle: Klucel (hydroxypropylcellulose) (HPC)); 110 % of control (dose: 18.0 mg/kg/injection, schedule: Q04DX003 (ip), vehicle: saline with Tween-80); 110 % of control (dose: 26.0 mg/kg/injection, schedule: Q04DX003 (ip), vehicle: saline with Tween-80); 105 % of control (dose: 30.0 mg/kg/injection, schedule: Q01DX009 (ip), vehicle: Klucel (hydroxypropylcellulose) (HPC)); 106 % of control (dose: 39.0 mg/kg/injection, schedule: Q04DX003 (ip), vehicle: saline with Tween-80); 108 % of control (dose: 40.0 mg/kg/injection, schedule: Q04DX003 (ip), vehicle: saline). Further, the T/C was 108 % of control (dose: 45.0 mg/kg/injection, schedule: Q01DX009 (ip), vehicle: Klucel (hydroxypropylcellulose) (HPC)); 108 % of control (dose: 59.0 mg/kg/injection, schedule: Q04DX003 (ip), vehicle: saline with Tween-80); 113 % of control (dose: 60.0 mg/kg/injection, schedule: Q01DX009 (ip), vehicle: Klucel (hydroxypropylcellulose) (HPC)); 118 % of control (dose: 80.0 mg/kg/injection, schedule: Q04DX003 (ip), vehicle: saline); 117 % of control (dose: 89.0 mg/kg/injection, schedule: Q04DX003 (ip), vehicle: saline with Tween-80); 119 % of control (dose: 120.0 mg/kg/injection, schedule: Q01DX009 (ip), vehicle: other). The T/C is 97 % of control (dose: 133.0 mg/kg/injection, schedule: Q01DX009 (ip), vehicle: saline with Tween-80); 115 % of control (dose: 133.0 mg/kg/injection, schedule: Q04DX003 (ip), vehicle: saline with Tween-80); 154 % of control (dose: 160.0 mg/kg/injection, schedule: Q04DX003 (ip), vehicle: saline).
With `c1ccc2c(c1)CC1(Cc3ccccc3-2)C[N+]12CCCCC2`, the T/C was 98 % of control (dose: 12.5 mg/kg/injection, schedule: Q04DX003 (ip), vehicle: saline); 98 % of control (dose: 25.0 mg/kg/injection, schedule: Q04DX003 (ip), vehicle: saline); 110 % of control (dose: 50.0 mg/kg/injection, schedule: Q04DX003 (ip), vehicle: saline).
`CC(=O)OC1CCC2(C)C(CCC3(C)C2CC=C2C4=C(CCC(C)(C)C4=O)CCC23C)C1(C)C` (stereo unspecified): the T/C is, setting by setting: under setting [1], 102 % of control; under setting [2], 100 % of control; under setting [3], 92 % of control.
For `C[C@]12CC[C@H](O)CC1=CC[C@@H]1[C@@H]2CC[C@](C)(C(=O)O)[C@H]1CC1Nc2ccccc2C1=O` (stereo partly specified), the T/C under setting [4] was 95 % of control; the T/C under setting [1] is 91 % of control; the T/C under setting [5] is 92 % of control and 91 % of control; the T/C under setting [2] is 95 % of control; the T/C under setting [6] is 97 % of control and 86 % of control; the T/C under setting [3] was 104 % of control.
Regarding `N#Cc1c(N)ncn1C1OC(CO)C(O)C1O` (stereo unspecified), the T/C is 96 % of control under setting [4], 104 % of control under setting [5] and 109 % of control under setting [6].
For `Nc1cc(Cl)cc2c1-c1c(Cl)cc(Cl)cc1C2=O`, the T/C runs as follows: under setting [7], 100 % of control; under setting [8], 97 % of control; under setting [9], 106 % of control; under setting [10], 95 % of control.
For `O=C(/C=C\c1ccc(O)cc1)c1ccccc1`, the T/C under setting [7] was 97 % of control; the T/C under setting [8] was 89 % of control; the T/C under setting [9] was 106 % of control; the T/C under setting [10] was 96 % of control; the T/C (dose: 400.0 mg/kg/injection, schedule: Q01DX009 (ip), vehicle: Klucel (hydroxypropylcellulose) (HPC)) was 101 % of control.
With `CCCCCC/C=C/C1CC(=O)OC1=O` (stereo unspecified), the T/C (dose: 25.0 mg/kg/injection, schedule: Q01DX009 (ip), vehicle: saline with Tween-80) is 100 % of control; the T/C (dose: 50.0 mg/kg/injection, schedule: Q01DX009 (ip), vehicle: saline with Tween-80) is 88 % of control; the T/C (dose: 50.0 mg/kg/injection, schedule: Q04DX003 (ip), vehicle: saline with Tween-80) is 98 % of control; the T/C under setting [11] was 100 % of control; the T/C under setting [12] is 101 % of control and 112 % of control; the T/C under setting [13] is 97 % of control. Moreover, the T/C is 95 % of control and 101 % of control under setting [14]; 103 % of control under setting [15].
`Nc1ccn([C@@H](C=O)O[C@@H](C=O)CO)c(=O)n1`: the T/C reads like this: (dose: 35.0 mg/kg/injection, schedule: Q01DX009 (ip), vehicle: water) 111 % of control; (dose: 35.0 mg/kg/injection, schedule: Q01DX Z (ip), vehicle: water) 107 % of control; (dose: 70.0 mg/kg/injection, schedule: Q01DX009 (ip), vehicle: water) 122 % of control; (dose: 70.0 mg/kg/injection, schedule: Q01DX Z (ip), vehicle: water) 123 % of control; (dose: 140.0 mg/kg/injection, schedule: Q01DX009 (ip), vehicle: water) 161 % of control.
With `COC(=O)C1C2C=CC(C3C=CC32)C1C(=O)OC` (stereo unspecified), the T/C reads like this: under setting [16], 103 % of control; under setting [17], 97 % of control; under setting [18], 103 % of control.
In the case of `Cc1ccccc1Oc1ccccc1N`, the T/C is, setting by setting: (dose: 100.0 mg/kg/injection, schedule: Q01DX009 (sc), vehicle: olive oil, sesame oil, peanut oil) 101 % of control; (dose: 100.0 mg/kg/injection, schedule: Q04DX003 (sc), vehicle: olive oil, sesame oil, peanut oil) 110 % of control; (dose: 200.0 mg/kg/injection, schedule: Q01DX009 (sc), vehicle: olive oil, sesame oil, peanut oil) 101 % of control; (dose: 200.0 mg/kg/injection, schedule: Q04DX003 (sc), vehicle: olive oil, sesame oil, peanut oil) 94 % of control; (dose: 400.0 mg/kg/injection, schedule: Q01DX009 (sc), vehicle: olive oil, sesame oil, peanut oil) 97 % of control; (dose: 400.0 mg/kg/injection, schedule: Q04DX003 (sc), vehicle: olive oil, sesame oil, peanut oil) 116 % of control.
In the case of `CCN(CC)CCCC(C)Nc1cc(C)nc(Nc2nc3cc(Cl)c(Cl)cc3[nH]2)n1` (stereo unspecified), the T/C is 96 % of control (dose: 5.0 mg/kg/injection, schedule: Q01DX009 (ip), vehicle: saline with Tween-80) and 93 % of control (dose: 10.0 mg/kg/injection, schedule: Q01DX009 (ip), vehicle: saline with Tween-80).
For the compound `CCOC(=O)CN=CC1CCC=CO1` (stereo unspecified), the T/C under setting [11] was 97 % of control; the T/C under setting [12] was 93 % of control; the T/C under setting [13] was 103 % of control; the T/C under setting [14] is 95 % of control; the T/C (dose: 400.0 mg/kg/injection, schedule: Q01DX009 (ip), vehicle: saline with Tween-80) is 108 % of control; the T/C under setting [15] was 93 % of control.
As for `C[N+](C)(C)CCCCCCCCCC[N+](C)(C)CCCCCCCCCC[N+](C)(C)CCCCCCCCCC[N+](C)(C)C`, the T/C by setting is: (dose: 25.0 micrograms/kg/injection, schedule: Q04DX003 (ip), vehicle: Klucel (hydroxypropylcellulose) (HPC)) 96 % of control; (dose: 50.0 micrograms/kg/injection, schedule: Q04DX003 (ip), vehicle: Klucel (hydroxypropylcellulose) (HPC)) 97 % of control; (dose: 100.0 micrograms/kg/injection, schedule: Q04DX003 (ip), vehicle: Klucel (hydroxypropylcellulose) (HPC)) 97 % of control.
With `CCC(CC)NCC(C)O` (stereo unspecified), the T/C reads like this: (dose: 75.0 mg/kg/injection, schedule: Q01DX001 (ip), vehicle: saline) 105 % of control; (dose: 150.0 mg/kg/injection, schedule: Q01DX001 (ip), vehicle: saline) 108 % of control; (dose: 300.0 mg/kg/injection, schedule: Q01DX001 (ip), vehicle: saline) 102 % of control.
On to `CCC(Cl)(c1ccccc1)C(O)C(=O)OC(C)C` (stereo unspecified), for which the T/C was 106 % of control under setting [16], 103 % of control under setting [17] and 106 % of control under setting [18].
For `CC(=O)OC(C)COCc1ccccc1` (stereo unspecified), the T/C is 107 % of control under setting [4], 89 % of control under setting [5] and 100 % of control under setting [6].
